Holding throughout (assay): Broth microdilution MIC, European bacteraemia isolates 2010-2012
In general terms: In broth dilution the organism is exposed to a series of concentrations in liquid medium.

For experiment [1], the system named is E. faecalis. The experiment is classed as cell-based, Enterococcus faecalis. As to conditions: for % Resistant, CLSI / % Susceptible, CLSI: CLSI M100-S23 breakpoints; for % Resistant, EUCAST / % Susceptible, EUCAST: EUCAST 2013 breakpoints; for % susceptible: E. faecalis strains, criteria not stated; for MIC50 / MIC90: Enterococcus faecalis; for MIC50: read-out: MIC 50%; for MIC90: read-out: MIC 90%. The protocol:
(§1) A total of 2,904 clinical strains responsible for documented bacteremia among unique hospitalized patients in 38 hospitals in 11 European Union countries. Israel, Russia, Turkey and Ukraine were included in this study (2010-2012). Isolates were submitted to a central monitoring laboratory (JMI Laboratories, North Liberty. Iowa. USA), following previously established protocols. Bacterial species identification was performed by using an automated system (Vitek®2; bioMèrieux, Hazelwood, Mo., USA) or conventional biochemical algorithms, as required.
(§2) Isolates were tested for susceptibility by broth microdilution methods following the Clinical and Laboratory Standards Institute (CLSI; M07-A9, 2012) document. Susceptibility testing was performed in cation-adjusted Mueller-Hinton broth (CA-MHB) using dry-form panels manufactured by Thermo Fisher Scientific, formerly TREK Diagnostics Systems/Sensititre (Cleveland. Ohio, USA). These panels provide results equivalent to the CLSI-approved broth microdilution method supplemented with 0.002% polysorbate-80.
(§3) Quality assurance was performed by concurrent testing of CLSI-recommended (M100-S23, 2013) strains: E. faecalis ATCC 29212 and S. aureus ATCC 29213. Interpretation of comparator MIC results was in accordance with published CLSI (M100-S23) and European Committee on Antimicrobial Susceptibility Testing (EUCAST, 2013) criteria.

Experiment [2] concerns E. faecium. The experiment is classed as cell-based, Enterococcus faecium. Particulars: for % Resistant, CLSI / % Susceptible, CLSI: CLSI M100-S23 breakpoints; for % Resistant, EUCAST / % Susceptible, EUCAST: EUCAST 2013 breakpoints; for MIC90 / MIC50: Enterococcus faecium; for MIC90 / MIC50 / MIC 50% / MIC Range / MIC 90%: Table 2; for MIC90: read-out: MIC 90%; for MIC50: read-out: MIC 50%. The protocol:
as §1, §2, §3

Experiment [3] has as its system S. aureus. The experiment is classed as cell-based. Particulars: S. aureus Methicillin-resistant (1,708); for % Resistant, CLSI / % Susceptible, CLSI: CLSI M100-S23 breakpoints; for % Resistant, EUCAST / % Susceptible, EUCAST: EUCAST 2013 breakpoints; for MIC50 / MIC90: Staphylococcus aureus; for MIC50: read-out: MIC 50%; for MIC90: read-out: MIC 90%. The protocol:
as §1, §2, §3

In experiment [4] the test system is Coagulase-negative staphylococci. The experiment is classed as cell-based, coagulase-negative staphylococci (CoNS). Particulars: Coagulase-negative staphylococci (646); for MIC50: read-out: MIC 50%; for MIC90: read-out: MIC 90%. The procedure:
as §1, §2, §3

[5] abbreviates: E. faecium Vancomycin-resistant (VanA-phenotype) (153).
The mark [6] stands for this setting: E. faecium Vancomycin-susceptible (257).

Experimental findings from US20160206688A1, “METHODS FOR TREATING BACTEREMIA AND OSTEOMYELITIS USING ORITAVANCIN” (THE MEDICINES COMPANY, priority 2013, published 2016) are described below.

Values after ≈ are worked out from the molar mass of the structure shown. Where two headings read alike, the source gives them in different places.

Regarding `CC1(C)S[C@@H]2[C@H](NC(=O)[C@H](N)c3ccccc3)C(=O)N2[C@H]1C(=O)O` [Ampicillin], in experiment [1] (E. faecalis (445)), the “% Resistant, CLSI” value was determined as 0.0%; the “% Susceptible, CLSI” value is 100.0%; the “% Resistant, EUCAST” value came to 0.0%; the “% Susceptible, EUCAST” value is 99.6%. Besides, the “% susceptible” value in experiment [1] was 99.6%. In experiment [1] (Table 2, E. faecalis (445)), the MIC50 is not above 1 µg/mL, the MIC90 is 2 µg/mL (≈ 5.72 µM) and the “MIC 50%” value is reported as “≦1 mg/L”. Moreover, the “MIC Range” value in experiment [1] (Table 2, E. faecalis (445), includes four VanA-phenotype strains) is listed as “≦1-8 mg/L”. In experiment [2] (setting [5]), the “% Resistant, CLSI” value was 100.0%; the “% Susceptible, CLSI” value was found to be 0.0%; the “% Resistant, EUCAST” value is given as 100.0%; the “% Susceptible, EUCAST” value is 0.0%. Moreover, in experiment [2] (setting [5]), the MIC90 was more than 8 µg/mL, the “MIC 50%” value is more than 8 µg/mL and the “MIC Range” value is more than 8 µg/mL. For the same compound, in experiment [2] (setting [6]), the “% Resistant, CLSI” value was found to be 94.2%; the “% Susceptible, CLSI” value was found to be 5.8%; the “% Resistant, EUCAST” value worked out at 94.2%; the “% Susceptible, EUCAST” value came to 5.4%. Further, in experiment [2] (setting [6]), the MIC50 was more than 8 µg/mL and the MIC90 is more than 8 µg/mL.
On to `CCC[C@@H]1C[C@@H](C(=O)N[C@@H]([C@H]2O[C@H](SC)[C@H](O)[C@@H](O)[C@H]2O)[C@H](C)Cl)N(C)C1` [Clindamycin], for which, in experiment [3], the “% Resistant, CLSI” value was determined as 40.3%; the “% Susceptible, CLSI” value was found to be 59.1%; the “% Resistant, EUCAST” value was determined as 40.9%; the “% Susceptible, EUCAST” value was 58.9%. Further, in experiment [3] (Table 2), the MIC50 was not above 0.25 µg/mL and the MIC90 was more than 2 µg/mL. Besides, in experiment [4] (CLSI M100-S23 breakpoints), the “% Resistant, CLSI” value is 26.0%. In addition, in experiment [4] (Table 2), the MIC50 is not above 0.25 µg/mL and the MIC90 was more than 2 µg/mL.
As for `CC[C@H]1OC(=O)[C@H](C)[C@@H](O[C@H]2C[C@@](C)(OC)[C@@H](O)[C@H](C)O2)[C@H](C)[C@@H](O[C@@H]2O[C@H](C)C[C@H](N(C)C)[C@H]2O)[C@](C)(O)C[C@@H](C)C(=O)[C@H](C)[C@@H](O)[C@]1(C)O` [Erythromycin], the “% Resistant, CLSI” value in experiment [3] is 68.0%; in experiment [4] (CLSI M100-S23 breakpoints), 65.1%; in experiment [1] (E. faecalis (445)), 54.8%; in experiment [2] (setting [5]), 98.1%; in experiment [2] (setting [6]) it was 91.4%. For the same compound, the “% Susceptible, CLSI” value in experiment [3] came to 29.6%; in experiment [1] (E. faecalis (445)) it was 8.1%; in experiment [2] (setting [5]), 0.0%; in experiment [2] (setting [6]), 3.5%. Moreover, the “% Resistant, EUCAST” value in experiment [3] was 69.1%. The “% Susceptible, EUCAST” value in experiment [3] worked out at 29.8%. Also, the MIC50 is more than 4 µg/mL in experiment [3] (Table 2); more than 4 µg/mL in experiment [4] (Table 2); more than 4 µg/mL in experiment [1] (Table 2, E. faecalis (445)); more than 4 µg/mL in experiment [2] (setting [6]). Also, the MIC90 in experiment [3] (Table 2) is more than 4 µg/mL; in experiment [4] (Table 2) it was more than 4 µg/mL; in experiment [1] (Table 2, E. faecalis (445)), more than 4 µg/mL; in experiment [2] (setting [5]) it was more than 4 µg/mL; in experiment [2] (setting [6]) it was more than 4 µg/mL. Moreover, in experiment [2] (setting [5]), the “MIC 50%” value was more than 4 µg/mL.
As for `C[C@H]1COc2c(N3CCN(C)CC3)c(F)cc3c(=O)c(C(=O)O)cn1c23` [Levofloxacin], in experiment [3], the “% Resistant, CLSI” value worked out at 90.3%; the “% Susceptible, CLSI” value was determined as 8.6%; the “% Resistant, EUCAST” value came to 90.3%; the “% Susceptible, EUCAST” value turned out to be 8.6%. In experiment [3] (Table 2), the MIC50 was more than 4 µg/mL and the MIC90 was more than 4 µg/mL. In experiment [4] (CLSI M100-S23 breakpoints), the “% Resistant, CLSI” value was determined as 56.2%. For the same compound, in experiment [4] (Table 2), the MIC50 was found to be 4 µg/mL (≈ 11.1 µM) and the MIC90 was more than 4 µg/mL. Moreover, in experiment [1] (E. faecalis (445)), the “% Resistant, CLSI” value was found to be 35.3% and the “% Susceptible, CLSI” value is listed as 64.3%. Further, in experiment [1] (Table 2, E. faecalis (445)), the MIC50 worked out at 1 µg/mL (≈ 2.77 µM) and the MIC90 is more than 4 µg/mL. In addition, in experiment [2] (setting [5]), the “% Resistant, CLSI” value amounted to 100.0%; the “% Susceptible, CLSI” value amounted to 0.0%; the MIC90 is more than 4 µg/mL; the “MIC 50%” value was more than 4 µg/mL. Besides, in experiment [2] (setting [5]), the “MIC Range” value was more than 4 µg/mL. Moreover, in experiment [2] (setting [6]), the “% Resistant, CLSI” value turned out to be 89.1%; the “% Susceptible, CLSI” value is given as 5.8%; the MIC50 is more than 4 µg/mL; the MIC90 is more than 4 µg/mL.
On to `Cc1onc(-c2ccccc2)c1C(=O)N[C@@H]1C(=O)N2[C@@H]1SC(C)(C)[C@@H]2C(=O)O` [Oxacillin], for which, in experiment [4] (CLSI M100-S23 breakpoints), the “% Resistant, CLSI” value was found to be 78.8%. Further, in experiment [4] (Table 2), the MIC50 is more than 2 µg/mL and the MIC90 was more than 2 µg/mL.
In the case of `CN(C)[C@@H]1C(O)=C(C(N)=O)C(=O)[C@@]2(O)C(O)=C3C(=O)c4c(O)cccc4[C@@](C)(O)[C@H]3C[C@@H]12` [Tetracycline], the “% Resistant, CLSI” value is listed as 14.2% in experiment [3]; 15.2% in experiment [4] (CLSI M100-S23 breakpoints); 73.5% in experiment [1] (E. faecalis (445)); 41.5% in experiment [2] (setting [5]); 43.2% in experiment [2] (setting [6]). Besides, the “% Susceptible, CLSI” value in experiment [3] is 84.9%; in experiment [1] (E. faecalis (445)), 26.5%; in experiment [2] (setting [5]) it was 58.5%; in experiment [2] (setting [6]), 56.0%. Also, the “% Resistant, EUCAST” value in experiment [3] amounted to 15.1%. The “% Susceptible, EUCAST” value in experiment [3] was 84.4%. Besides, the MIC50 was not above 0.25 µg/mL in experiment [3] (Table 2); 1 µg/mL (≈ 2.25 µM) in experiment [4] (Table 2); more than 8 µg/mL in experiment [1] (Table 2, E. faecalis (445)); 0.5 µg/mL (≈ 1.13 µM) in experiment [2] (setting [6]). Also, the MIC90 in experiment [3] (Table 2) was more than 8 µg/mL; in experiment [4] (Table 2), more than 8 µg/mL; in experiment [1] (Table 2, E. faecalis (445)), more than 8 µg/mL; in experiment [2] (setting [5]), more than 8 µg/mL; in experiment [2] (setting [6]) it was more than 8 µg/mL. Further, in experiment [2] (setting [5]), the “MIC 50%” value worked out at 0.5 µg/mL (≈ 1.13 µM).
For Teicoplanin, the “% Resistant, CLSI” value in experiment [3] amounted to 0.0%; in experiment [4] (CLSI M100-S23 breakpoints) it was 0.8%; in experiment [1] (E. faecalis (445)) it was 0.9%; in experiment [2] (setting [5]) it was 96.2%; in experiment [2] (setting [6]), 0.0%. Also, the “% Susceptible, CLSI” value in experiment [3] is given as 100.0%; in experiment [4] (CLSI M100-S23 breakpoints) it was 97.7%; in experiment [1] (E. faecalis (445)) it was 99.1%; in experiment [2] (setting [5]), 0.0%; in experiment [2] (setting [6]), 100.0%. In addition, the “% Resistant, EUCAST” value in experiment [3] came out at 0.0%; in experiment [4] (EUCAST 2013 breakpoints) it was 11.1%; in experiment [1] (E. faecalis (445)) it was 0.9%; in experiment [2] (setting [5]), 100.0%; in experiment [2] (setting [6]), 0.4%. In addition, the “% Susceptible, EUCAST” value in experiment [3] turned out to be 100.0%; in experiment [4] (EUCAST 2013 breakpoints), 88.9%; in experiment [1] (E. faecalis (445)), 99.1%; in experiment [2] (setting [5]), 0.0%; in experiment [2] (setting [6]) it was 99.6%. For the same compound, the “MIC 50%” value in experiment [3] (Table 2) was “≦2 mg/L”; in experiment [4] (Table 2) it was “≦2 mg/L”; in experiment [1] (Table 2, E. faecalis (445)), “≦2 mg/L”; in experiment [2] (setting [5]), more than 8 µg/mL; in experiment [2] (setting [6]), “≦2 mg/L”. Also, the “MIC 90%” value in experiment [3] (Table 2) is “≦2 mg/L”; in experiment [4] (Table 2), 8 µg/mL; in experiment [1] (Table 2, E. faecalis (445)), “≦2 mg/L”; in experiment [2] (setting [5]) it was more than 8 µg/mL; in experiment [2] (setting [6]), “≦2 mg/L”. Moreover, the “MIC Range” value in experiment [3] (Table 2) is “≦2 mg/L”; in experiment [2] (setting [5]), more than 8 µg/mL; in experiment [2] (setting [6]) it was “≦2-4 mg/L”. In addition, in experiment [1], the “% susceptible” value was 99.1%.
